Results from patent US20260262643A1, “HERBICIDAL BENZOXAZINES” (FMC CORPORATION, priority 2022, published 2026).

Tests used:
ragweed [1] = assay: Test C postemergence; type: in vivo, Ambrosia artemisiifolia; settings: 10 days
Summary of the method: (§1)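 Pre: seeds in loam/sand, directed soil spray. Post: 1–2 leaf plants, 2–10 cm. Cmpd in non-phytotoxic solvent + surfactant. Greenhouse 10 d; visual rating vs untreated, 0 = none, 100 = complete control.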

pigweed, palmer [2] = assay: Test C preemergence; type: in vivo, Amaranthus palmeri; settings: 0 to 100 scale (0 no effect, 100 complete control); for Plant response rating, Pigweed, Palmer: Preemergence, 500 g ai/ha, visual rating after 10 days; for Pigweed, Palmer plant response rating: Test C, preemergence, 125 g ai/ha
Summary of the method: as §1

galium = assay: Test C postemergence; type: in vivo, Galium aparine; settings: 10 days
Summary of the method: as §1

soybean [3] = assay: Test C preemergence; type: in vivo, Glycine max; settings: 0 to 100 scale (0 no effect, 100 complete control); for Plant response rating, Soybean: Preemergence, 500 g ai/ha, visual rating after 10 days; for Soybean plant response rating: Test C, preemergence, 125 g ai/ha
Summary of the method: as §1

barnyardgrass [4] = assay: Test C postemergence; type: in vivo, Echinochloa crusgalli; settings: 10 days
Summary of the method: as §1

corn [5] = assay: Test C preemergence; type: in vivo, Zea mays; settings: 0 to 100 scale (0 no effect, 100 complete control); for Plant response rating, Corn: Preemergence, 500 g ai/ha, visual rating after 10 days; for Corn plant response rating: Test C, preemergence, 125 g ai/ha
Summary of the method: as §1

horseweed = assay: Test C postemergence; type: in vivo, Erigeron canadensis; settings: 10 days
Summary of the method: as §1

ryegrass, Italian [6] = assay: Test C postemergence; type: in vivo, Lolium multiflorum; settings: 10 days
Summary of the method: as §1

wheat [7] = assay: Test C postemergence; type: in vivo, Triticum aestivum; settings: 10 days
Summary of the method: as §1

kochia [8] = assay: Test C preemergence; type: in vivo, Bassia scoparia; settings: 0 to 100 scale (0 no effect, 100 complete control); for Plant response rating, Kochia: Preemergence, 500 g ai/ha, visual rating after 10 days; for Kochia plant response rating: Test C, preemergence, 125 g ai/ha
Summary of the method: as §1

corn [9] = assay: Test C postemergence; type: in vivo, Zea mays; settings: 10 days
Summary of the method: as §1

barnyardgrass [10] = assay: Test C preemergence; type: in vivo, Echinochloa crusgalli; settings: 0 to 100 scale (0 no effect, 100 complete control); for Plant response rating, Barnyardgrass: Preemergence, 500 g ai/ha, visual rating after 10 days; for Barnyardgrass plant response rating: Test C, preemergence, 125 g ai/ha
Summary of the method: as §1

ragweed [11] = assay: Test C preemergence; type: in vivo, Ambrosia artemisiifolia; settings: 0 to 100 scale (0 no effect, 100 complete control); for Plant response rating, Ragweed: Preemergence, 500 g ai/ha, visual rating after 10 days; for Ragweed plant response rating: Test C, preemergence, 125 g ai/ha
Summary of the method: as §1

ryegrass, Italian [12] = assay: Test C preemergence; type: in vivo, Lolium multiflorum; settings: 0 to 100 scale (0 no effect, 100 complete control); for Plant response rating, Ryegrass, Italian: Preemergence, 500 g ai/ha, visual rating after 10 days; for Ryegrass, Italian plant response rating: Test C, preemergence, 125 g ai/ha
Summary of the method: as §1

blackgrass [13] = assay: Test C preemergence; type: in vivo, Alopecurus myosuroides; settings: 0 to 100 scale (0 no effect, 100 complete control); for Plant response rating, Blackgrass: Preemergence, 500 g ai/ha, visual rating after 10 days; for Blackgrass plant response rating: Test C, preemergence, 125 g ai/ha
Summary of the method: as §1

ducksalad = assay: Test D flooded paddy test; type: in vivo, Heteranthera limosa; settings: 250 g ai/ha, applied to paddy water, visual rating after 13 to 14 days, scale 0 to 100 (0 no effect, 100 complete control)
Summary of the method: (§2)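 Visual ratings from 0, meaning no effect, to 100, meaning complete control, were assigned against untreated controls 13 to 14 days after compounds were added to the floodwater of pots kept 3 cm deep, with plants at the 2-leaf stage.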

blackgrass [14] = assay: Test C postemergence; type: in vivo, Alopecurus myosuroides; settings: 10 days
Summary of the method: as §1

oat, wild [15] = assay: Test C preemergence; type: in vivo, Avena fatua; settings: 0 to 100 scale (0 no effect, 100 complete control); for Plant response rating, Oat, Wild: Preemergence, 500 g ai/ha, visual rating after 10 days; for Oat, Wild plant response rating: Test C, preemergence, 125 g ai/ha
Summary of the method: as §1

barnyardgrass [16] = assay: Test D flooded paddy test; type: in vivo, Echinochloa crus-galli; settings: 250 g ai/ha, applied to paddy water, visual rating after 13 to 14 days, scale 0 to 100 (0 no effect, 100 complete control)
Summary of the method: as §2

oat, wild [17] = assay: Test C postemergence; type: in vivo, Avena fatua; settings: 10 days
Summary of the method: as §1

rice = assay: Test D flooded paddy test; type: in vivo, Oryza sativa; settings: 250 g ai/ha, applied to paddy water, visual rating after 13 to 14 days, scale 0 to 100 (0 no effect, 100 complete control)
Summary of the method: as §2

kochia [18] = assay: Test C postemergence; type: in vivo, Bassia scoparia; settings: 10 days
Summary of the method: as §1

pigweed, palmer [19] = assay: Test C postemergence; type: in vivo, Amaranthus palmeri; settings: 10 days
Summary of the method: as §1

sedge, umbrella = assay: Test D flooded paddy test; type: in vivo, Cyperus difformis; settings: 250 g ai/ha, applied to paddy water, visual rating after 13 to 14 days, scale 0 to 100 (0 no effect, 100 complete control)
Summary of the method: as §2

green foxtail = assay: Test C preemergence; type: in vivo, Setaria viridis; settings: 0 to 100 scale (0 no effect, 100 complete control); for Plant response rating, Foxtail, Green: Preemergence, 500 g ai/ha, visual rating after 10 days; for Foxtail, Green plant response rating: Test C, preemergence, 125 g ai/ha
Summary of the method: as §1

soybean [20] = assay: Test C postemergence; type: in vivo, Glycine max; settings: 10 days
Summary of the method: as §1

wheat [21] = assay: Test C preemergence; type: in vivo, Triticum aestivum; settings: 0 to 100 scale (0 no effect, 100 complete control); for Plant response rating, Wheat: Preemergence, 500 g ai/ha, visual rating after 10 days; for Wheat plant response rating: Test C, preemergence, 125 g ai/ha
Summary of the method: as §1

[22] = 125 g ai/ha, postemergence, 0 to 100 scale, 0 no effect, 100 complete control
[23] = Postemergence, 500 g ai/ha, visual 0 to 100 scale (0 no effect, 100 complete control)

SMILES: COC[C@H]1CN(C(=O)c2cccc(-n3cnc(C(C)(C)O)n3)c2)c2cccc(Cl)c2O1 [Compound 253]
- Plant response rating, Ragweed (ragweed [1]; [22]): 70
- Plant response rating, Ragweed (ragweed [1]; [23]): 70
- Plant response rating, Pigweed, Palmer (pigweed, palmer [2]): 100
- Pigweed, Palmer plant response rating (pigweed, palmer [2]): 90
- Plant response rating, Galium (galium; [22]): 100
- Plant response rating, Galium (galium; [23]): 100
- Plant response rating, Soybean (soybean [3]): 80
- Soybean plant response rating (soybean [3]): 40
- Plant response rating, Barnyardgrass (barnyardgrass [4]; [22]): 20
- Plant response rating, Barnyardgrass (barnyardgrass [4]; [23]): 30
- Plant response rating, Corn (corn [5]): 10
- Corn plant response rating (corn [5]): 0
- Plant response rating, Horseweed (horseweed; [22]): 0
- Plant response rating, Horseweed (horseweed; [23]): 20
- Plant response rating, Ryegrass, Italian (ryegrass, Italian [6]; [22]): 50
- Plant response rating, Ryegrass, Italian (ryegrass, Italian [6]; [23]): 50
- Plant response rating, Wheat (wheat [7]; [22]): 20
- Plant response rating, Wheat (wheat [7]; [23]): 70
- Plant response rating, Kochia (kochia [8]): 80
- Kochia plant response rating (kochia [8]): 60
- Plant response rating, Corn (corn [9]; [22]): 20
- Plant response rating, Corn (corn [9]; [23]): 80
- Plant response rating, Barnyardgrass (barnyardgrass [10]): 60
- Barnyardgrass plant response rating (barnyardgrass [10]): 50
- Plant response rating, Ragweed (ragweed [11]): 80
- Ragweed plant response rating (ragweed [11]): 20
- Plant response rating, Ryegrass, Italian (ryegrass, Italian [12]): 60
- Ryegrass, Italian plant response rating (ryegrass, Italian [12]): 40
- Plant response rating, Blackgrass (blackgrass [13]): 50
- Blackgrass plant response rating (blackgrass [13]): 20
- Plant response rating, Ducksalad (Flood) (ducksalad): 85
- Plant response rating, Blackgrass (blackgrass [14]; [22]): 40
- Plant response rating, Blackgrass (blackgrass [14]; [23]): 80
- Plant response rating, Oat, Wild (oat, wild [15]): 90
- Oat, Wild plant response rating (oat, wild [15]): 30
- Plant response rating, Barnyardgrass (Flood) (barnyardgrass [16]): 0
- Plant response rating, Oat, Wild (oat, wild [17]; [22]): 50
- Plant response rating, Oat, Wild (oat, wild [17]; [23]): 90
- Plant response rating, Rice (Flood) (rice): 10
- Plant response rating, Kochia (kochia [18]; [22]): 80
- Plant response rating, Kochia (kochia [18]; [23]): 80
- Plant response rating, Pigweed, Palmer (pigweed, palmer [19]; [23]): 70
- Plant response rating, Sedge, Umbrella (Flood) (sedge, umbrella): 70
- Plant response rating, Foxtail, Green (green foxtail): 100
- Foxtail, Green plant response rating (green foxtail): 80
- Plant response rating, Soybean (soybean [20]; [22]): 100
- Plant response rating, Soybean (soybean [20]; [23]): 100
- Plant response rating, Wheat (wheat [21]): 50
- Wheat plant response rating (wheat [21]): 0

SMILES: COC[C@H]1CN(C(=O)c2cc(-n3cncn3)ccc2OC)c2cccc(Cl)c2O1 [Compound 234]
- Plant response rating, Ragweed (ragweed [1]; [22]): 50
- Plant response rating, Ragweed (ragweed [1]; [23]): 70
- Plant response rating, Pigweed, Palmer (pigweed, palmer [2]): 90
- Pigweed, Palmer plant response rating (pigweed, palmer [2]): 60
- Plant response rating, Galium (galium; [22]): 100
- Plant response rating, Galium (galium; [23]): 100
- Plant response rating, Soybean (soybean [3]): 100
- Soybean plant response rating (soybean [3]): 90
- Plant response rating, Barnyardgrass (barnyardgrass [4]; [22]): 60
- Plant response rating, Barnyardgrass (barnyardgrass [4]; [23]): 100
- Plant response rating, Corn (corn [5]): 10
- Corn plant response rating (corn [5]): 10
- Plant response rating, Horseweed (horseweed; [22]): 20
- Plant response rating, Horseweed (horseweed; [23]): 20
- Plant response rating, Ryegrass, Italian (ryegrass, Italian [6]; [22]): 90
- Plant response rating, Ryegrass, Italian (ryegrass, Italian [6]; [23]): 90
- Plant response rating, Wheat (wheat [7]; [22]): 50
- Plant response rating, Wheat (wheat [7]; [23]): 80
- Plant response rating, Kochia (kochia [8]): 60
- Kochia plant response rating (kochia [8]): 30
- Plant response rating, Corn (corn [9]; [22]): 70
- Plant response rating, Corn (corn [9]; [23]): 90
- Plant response rating, Barnyardgrass (barnyardgrass [10]): 100
- Barnyardgrass plant response rating (barnyardgrass [10]): 90
- Plant response rating, Ragweed (ragweed [11]): 50
- Ragweed plant response rating (ragweed [11]): 50
- Plant response rating, Ryegrass, Italian (ryegrass, Italian [12]): 90
- Ryegrass, Italian plant response rating (ryegrass, Italian [12]): 80
- Plant response rating, Blackgrass (blackgrass [13]): 80
- Blackgrass plant response rating (blackgrass [13]): 70
- Plant response rating, Ducksalad (Flood) (ducksalad): 100
- Plant response rating, Blackgrass (blackgrass [14]; [22]): 80
- Plant response rating, Blackgrass (blackgrass [14]; [23]): 90
- Plant response rating, Oat, Wild (oat, wild [15]): 70
- Oat, Wild plant response rating (oat, wild [15]): 50
- Plant response rating, Barnyardgrass (Flood) (barnyardgrass [16]): 75
- Plant response rating, Oat, Wild (oat, wild [17]; [22]): 50
- Plant response rating, Oat, Wild (oat, wild [17]; [23]): 80
- Plant response rating, Rice (Flood) (rice): 0
- Plant response rating, Kochia (kochia [18]; [22]): 60
- Plant response rating, Kochia (kochia [18]; [23]): 80
- Plant response rating, Pigweed, Palmer (pigweed, palmer [19]; [22]): 30
- Plant response rating, Pigweed, Palmer (pigweed, palmer [19]; [23]): 70
- Plant response rating, Sedge, Umbrella (Flood) (sedge, umbrella): 100
- Plant response rating, Foxtail, Green (green foxtail): 100
- Foxtail, Green plant response rating (green foxtail): 100
- Plant response rating, Soybean (soybean [20]; [22]): 100
- Plant response rating, Soybean (soybean [20]; [23]): 100
- Plant response rating, Wheat (wheat [21]): 80
- Wheat plant response rating (wheat [21]): 40
